Read-outs that look alike come from different tables or passages of the source.
Key:
HeLa cells [1] = test: MTT antiproliferative assay, HeLa cells; assay type: cell-based, human; settings: 48 h
Description: (§1) HeLa and SiHa cell lines were obtained from the Procell Life Science Technology Co., Ltd. (Wuhan, China); H8 cell line was obtained from the Shanghai HonSun Biological Technology Co., Ltd. (Shanghai, China); HUVEC cell line was obtained from the Saibaikang (Shanghai) Biotechnology Co., Ltd. (Shanghai, China); HeLa/DDP cell line was obtained from the Guangzhou Jenniobio Biotechnology Co., Ltd. (Guangzhou, China). HeLa, SiHa, H8, and HeLa/DDP cells were cultured in DMEM medium (HyClone). The VEGF of 50 ng/mL was used as the promoter of the VEGFR-2 receptor on HUVEC cell membrane surfaces, and their inhibitory effects on VEGFR-2 were determined. All the mediums were supplemented with 10% FBS (HyClone, GE Healthcare, Australia). Cells were maintained at subconfluency at 37 °C in humidified air containing 5% CO2. The cells were monitored daily and maintained at 80% cell density. All compounds tested were dissolved in DMSO and then diluted by the culture medium before the treatment of cultured cells. Identification reports are available for all types of cell lines involved in this study.
(§2) The cytotoxicity of the target compounds were measured in vitro using the MTT assay. Cells grown in the logarithmic phase were counted and seeded in 96-well cell culture plates (5 × 10^3 cells per well) for 24 h to allow attachment of cells to the wall of the plate. […] Next, 20 μL of 5 mg.mL^−1 MTT solution was added to each well and cultured for 4 h. The old solution was discarded, replaced with 150 μL DMSO solution per well, and shaken for 10 min. The OD value was measured under 490 nm, and the inhibition rate was calculated. The nonlinear regression fitting of the cell growth rate was carried out using SPSS 23.0 software, and the IC50 of the compound was calculated. […] There were 6 compound holes in each group, and the experimental results were presented as the average of 3 experiments. A complete medium containing only cells was used as the blank control, whereas a complete medium without cells was the negative control group. Cisplatin and sorafenib were utilized as the positive control group, and the target compound was the experimental intervention group.

SiHa cells = test: MTT antiproliferative assay, SiHa cells; assay type: cell-based, human; settings: 48 h, mean ± SD
Description: as §1, §2

H8 cells = test: MTT cytotoxicity assay, normal cervical epithelial H8 cells; assay type: cell-based, human; settings: 48 h, mean ± SD
Description: as §1, §2

HeLa/DDP cells = test: MTT assay, cisplatin-resistant HeLa/DDP cells; assay type: cell-based, human; settings: for RI (resistance index): HeLa/DDP versus HeLa; for IC50: 48 h, read-out: 48h IC50 HeLa/DDP
Description: The cytotoxicity of the target compounds were measured in vitro using the MTT assay. Cells grown in the logarithmic phase were counted and seeded in 96-well cell culture plates (5 × 10^3 cells per well) for 24 h to allow attachment of cells to the wall of the plate. […] Next, 20 μL of 5 mg.mL^−1 MTT solution was added to each well and cultured for 4 h. The old solution was discarded, replaced with 150 μL DMSO solution per well, and shaken for 10 min. The OD value was measured under 490 nm, and the inhibition rate was calculated. The nonlinear regression fitting of the cell growth rate was carried out using SPSS 23.0 software, and the IC50 of the compound was calculated. […] A complete medium containing only cells was used as the blank control, whereas a complete medium without cells was the negative control group.
To reduce the adverse reactions caused by the fixation of drug resistance reversal agents, the concentration that reduces the proliferation rate of tumor cells by less than 10% was selected.

HUVEC cells = test: In vitro HUVEC inhibitory assay (MTT); assay type: cell-based; settings: Homo sapiens, 48 h, ± SD
Description: as §1, §2
After incubation for 24 h, the cell was collected using centrifugation and washed twice using PBS chilled to 0 °C. Then, the cells were homogenized in RIPA lysis buffer and 1% PMSF, 1% mixed phosphatase inhibitor (Solarbio, Beijing, China). The lysates were incubated on ice for 30 min, intermittently vortexed every 5 min, and centrifuged at 12,000 rpm for 20 min to harvest the supernatants.

HeLa cells [2] = test: Apoptosis analysis, Annexin V-FITC/PI flow cytometry; assay type: cell-based, human; settings: 4 μM, 24 h
Description: After incubation, cells were harvested and incubated using […] of Annexin-V/FITC (BD, America) in binding buffer (10 mM HEPES, 140 mM NaCl, and 2.5 mM CaCl2 at pH 7.4) at room temperature for 15 min. The PI solution was then added to the medium for another 10 min incubation. Almost 10,000 events were collected for each sample and analyzed using flow cytometry (BD, LSRFortessa, New York, NY, USA). The procedure for the remaining Western blot was the same as in Section 3.3.3.

[3] = Homo sapiens, MTT, mean ± SD, read-out: 48h IC50 HeLa
[4] = Homo sapiens, single agent, read-out: 48h IC50 HeLa (Table 4)
[5] = Homo sapiens, cisplatin-resistant HeLa/DDP cells, single agent

Row | Compound | IC50 (HeLa cells [1]; [3]) | IC50 (SiHa cells; Homo sapiens) | IC50 (H8 cells; Homo sapiens) | further results
1 | COc1cc(O)c(C(=O)/C=C/c2ccc(CN3CCC(O)CC3)cc2)cc1CN1CCC(O)CC1 [6a, (E)-1-(2-hydroxy-5-((4-hydroxypiperidin-1-yl)methyl)-4-methoxyphenyl)-3-(4-((4-hydroxypiperidin-1-yl)methyl)phenyl)prop-2-en-1-one] | 72.9 ± 0.12 µM | > 100 µM | > 100 µM | –
2 | COc1cc(O)c(C(=O)/C=C/c2ccc(CN3CCC(OC)CC3)cc2)cc1CN1CCC(O)CC1 [6b, (E)-1-(2-hydroxy-5-((4-hydroxypiperidin-1-yl)methyl)-4-methoxyphenyl)-3-(4-((4-methoxypiperidin-1-yl)methyl)phenyl)prop-2-en-1-one] | 40.13 ± 0.11 µM | 57.1 ± 1.3 µM | 82.5 ± 5.21 µM | –
3 | COc1cc(O)c(C(=O)/C=C/c2ccc(CN3CCCC3)cc2)cc1CN1CCC(O)CC1 [6c, (E)-1-(2-hydroxy-5-((4-hydroxypiperidin-1-yl)methyl)-4-methoxyphenyl)-3-(4-(pyrrolidin-1-ylmethyl)phenyl)prop-2-en-1-one] | 32.17 ± 0.14 µM | 44.49 ± 0.38 µM | 34 ± 4.14 µM | –
4 | COc1cc(O)c(C(=O)/C=C/c2ccc(CN3CCN(C)CC3)cc2)cc1CN1CCC(O)CC1 [6d, (E)-1-(2-hydroxy-5-((4-hydroxypiperidin-1-yl)methyl)-4-methoxyphenyl)-3-(4-((4-methylpiperazin-1-yl)methyl)phenyl)prop-2-en-1-one] | > 100 µM | > 100 µM | > 100 µM | –
5 | COc1cc(O)c(C(=O)/C=C/c2ccc(CN3CCOCC3)cc2)cc1CN1CCC(O)CC1 [6e, (E)-1-(2-hydroxy-5-((4-hydroxypiperidin-1-yl)methyl)-4-methoxyphenyl)-3-(4-(morpholinomethyl)phenyl)prop-2-en-1-one] | 56.7 ± 0.59 µM | > 100 µM | 75.69 ± 0.49 µM | –
6 | COc1cc(O)c(C(=O)/C=C/c2ccc(CN3CCC(C)CC3)cc2)cc1CN1CCC(OC)CC1 [6g, (E)-1-(2-hydroxy-4-methoxy-5-((4-methoxypiperidin-1-yl)methyl)phenyl)-3-(4-((4-methylpiperidin-1-yl)methyl)phenyl)prop-2-en-1-one] | 47.05 ± 0.11 µM | 85.04 ± 0.47 µM | 72.9 ± 1.08 µM | –
7 | COc1cc(O)c(C(=O)/C=C/c2ccc(CN3CCOCC3)cc2)cc1CN1CCC(OC)CC1 [6h, (E)-1-(2-hydroxy-4-methoxy-5-((4-methoxypiperidin-1-yl)methyl)phenyl)-3-(4-(morpholinomethyl)phenyl)prop-2-en-1-one] | > 100 µM | > 100 µM | > 100 µM | –
8 | COc1cc(O)c(C(=O)/C=C/c2ccc(CN3CCC(O)CC3)cc2)cc1CN1CCCC1 [6i, (E)-1-(2-hydroxy-4-methoxy-5-(pyrrolidin-1-ylmethyl)phenyl)-3-(4-((4-hydroxypiperidin-1-yl)methyl)phenyl)prop-2-en-1-one] | 46.15 ± 0.35 µM | 77.02 ± 0.22 µM | 71.64 ± 0.48 µM | –
9 | COc1cc(O)c(C(=O)/C=C/c2ccc(CN3CCOCC3)cc2)cc1CN1CCCC1 [6j, (E)-1-(2-hydroxy-4-methoxy-5-(pyrrolidin-1-ylmethyl)phenyl)-3-(4-(morpholinomethyl)phenyl)prop-2-en-1-one] | 37.74 ± 0.22 µM | 47.65 ± 0.19 µM | 58.46 ± 0.19 µM | –
10 | COc1cc(O)c(C(=O)/C=C/c2ccc(CN3CCC(OC)CC3)cc2)cc1CN1CCCC1 [6l, (E)-1-(2-hydroxy-4-methoxy-5-(pyrrolidin-1-ylmethyl)phenyl)-3-(4-((4-methoxypiperidin-1-yl)methyl)phenyl)prop-2-en-1-one] | > 100 µM | > 100 µM | > 100 µM | –
11 | COc1cc(O)c(C(=O)/C=C/c2ccc(CN3CCN(C)CC3)cc2)cc1CN1CCCC1 [6m, (E)-1-(2-hydroxy-4-methoxy-5-(pyrrolidin-1-ylmethyl)phenyl)-3-(4-((4-methylpiperazin-1-yl)methyl)phenyl)prop-2-en-1-one] | 52.43 ± 0.42 µM | > 100 µM | > 100 µM | –
12 | COc1cc(O)c(C(=O)/C=C/c2ccc(CN3CCOCC3)cc2)cc1CN1CCOCC1 [6n, (E)-1-(2-hydroxy-4-methoxy-5-(morpholinomethyl)phenyl)-3-(4-(morpholinomethyl)phenyl)prop-2-en-1-one] | > 100 µM | > 100 µM | > 100 µM | –
13 | COc1cc(O)c(C(=O)/C=C/c2ccc(CN3CCC(OC)CC3)cc2)cc1CN1CCOCC1 [6p, (E)-1-(2-hydroxy-4-methoxy-5-(morpholinomethyl)phenyl)-3-(4-((4-methoxypiperidin-1-yl)methyl)phenyl)prop-2-en-1-one] | 79.9 ± 2.4 µM | 66.04 ± 0.49 µM | 85.4 ± 3.92 µM | –
14 | COc1cc(O)c(C(=O)/C=C/c2ccc(CN3CCOCC3)cc2)cc1CN1CCC(C)CC1 [6q, (E)-1-(2-hydroxy-4-methoxy-5-((4-methylpiperidin-1-yl)methyl)phenyl)-3-(4-(morpholinomethyl)phenyl)prop-2-en-1-one] | 88.17 ± 0.72 µM | > 100 µM | > 100 µM | –
15 | COc1cc(O)c(C(=O)/C=C/c2ccc(CN3CCC(C)CC3)cc2)cc1CN1CCC(C)CC1 [6r, (E)-1-(2-hydroxy-4-methoxy-5-((4-methylpiperidin-1-yl)methyl)phenyl)-3-(4-((4-methylpiperidin-1-yl)methyl)phenyl)prop-2-en-1-one] | 25.5 ± 1.21 µM | 36.6 ± 1.94 µM | 42.2 ± 0.8 µM | –
16 | COc1cc(O)c(C(=O)/C=C/c2ccc(CN3CCCC3)cc2)cc1CN1CCC(C)CC1 [6s, (E)-1-(2-hydroxy-4-methoxy-5-((4-methylpiperidin-1-yl)methyl)phenyl)-3-(4-(pyrrolidin-1-ylmethyl)phenyl)prop-2-en-1-one] | 30.9 ± 0.39 µM | 36.1 ± 1.71 µM | 35.4 ± 0.61 µM | –
17 | COc1cc(O)c(C(=O)/C=C/c2ccc(CN3CCN(C)CC3)cc2)cc1CN1CCC(C)CC1 [6t, (E)-1-(2-hydroxy-4-methoxy-5-((4-methylpiperidin-1-yl)methyl)phenyl)-3-(4-((4-methylpiperazin-1-yl)methyl)phenyl)prop-2-en-1-one] | 30.9 ± 0.18 µM | 36 ± 6.3 µM | 42.11 ± 0.31 µM | –
18 | COc1cc(O)c(C(=O)/C=C/c2ccc(CN3CCC(C)CC3)cc2)cc1CN1CCN(C)CC1 [6u, (E)-1-(2-hydroxy-4-methoxy-5-((4-methylpiperazin-1-yl)methyl)phenyl)-3-(4-((4-methylpiperidin-1-yl)methyl)phenyl)prop-2-en-1-one] | 28.01 ± 0.14 µM | 28.2 ± 0.5 µM | 42.5 ± 0.85 µM | –
19 | N.N.[Cl][Pt][Cl] [Cisplatin, reference compound] | – | – | – | IC50 (HeLa cells [1]; MTT, mean ± SD, read-out: 48h IC50 HeLa): 13.6 ± 1.63 µM; IC50 (HeLa cells [1]; single agent, read-out: 48h IC50 HeLa (Table 4)): 13.6 ± 1.63 µM; IC50 (SiHa cells): 21.6 ± 2.9 µM; IC50 (H8 cells): 24.8 ± 1.37 µM; RI (resistance index) (HeLa/DDP cells; single agent): 7.36; IC50 (HeLa/DDP cells; cisplatin-resistant HeLa/DDP cells, single agent): 100 ± 7.94 µM
20 | COc1cccc2c1C(=O)c1c(O)c3c(c(O)c1C2=O)C[C@@](O)(C(=O)CO)C[C@@H]3O[C@H]1C[C@H](N)[C@H](O)[C@H](C)O1 [Doxorubicin] | – | – | – | IC50 (HeLa cells [1]; [4]): 10.6 ± 0.5 µM; RI (resistance index) (HeLa/DDP cells; single agent): 3.93; IC50 (HeLa/DDP cells; [5]): 41.6 ± 2.05 µM
21 | CC(=O)O[C@H]1C(=O)[C@@]2(C)[C@H]([C@H](OC(=O)c3ccccc3)[C@]3(O)C[C@H](OC(=O)[C@H](O)[C@@H](NC(=O)c4ccccc4)c4ccccc4)C(C)=C1C3(C)C)[C@]1(OC(C)=O)CO[C@@H]1C[C@@H]2O [Paclitaxel, reference compound] | – | – | – | IC50 (HeLa cells [1]; [4]): 20.1 ± 1.05 µM; IC50 (HeLa/DDP cells; [5]): 125 ± 5.3 µM
22 | CNC(=O)c1cc(Oc2ccc(NC(=O)Nc3ccc(Cl)c(C(F)(F)F)c3)cc2)ccn1 [Sorafenib, reference compound] | 10.8 ± 0.15 µM | 15 ± 1.2 µM | 18.4 ± 1.04 µM | IC50 (HeLa cells [1]; [4]): 10.8 ± 0.15 µM; IC50 (HUVEC cells): 9.2 ± 1.22 µM; IC50 (HeLa/DDP cells; Homo sapiens, HeLa): 12.4 ± 0.54 µM; proapoptotic rate (HeLa cells [2]): 31.7%

Reference: article PMC10254235, “Design, Synthesis, and Anti-Cervical Cancer and Reversal of Tumor Multidrug Resistance Activity of Novel Nitrogen-Containing Heterocyclic Chalcone Derivatives” (Molecules, 2023)
